Source: patent publication US20140005126A1, “SCAFFOLD PEPTIDES” (ISOGENICA LTD, priority 2010, published 2014)
Where a SMILES comes first, the peptide text is derived from it. Bridges are numbered along the chain shown (N, C = ends). The star is where a group is joined. Biotin = O=C1N[C@H]2[C@H](CS[C@H]2CCCCC(=O)*)N1

Tests used:
Plasma stability assay = type: in vitro ADME; conditions: mouse, 250 μM peptide, 37° C., HPLC area, one phase exponential decay
Method: Peptides were resuspended in Molecular Biology Grade water at a concentration of 3 mM. The WW-B1 peptide was added to 300 μl mouse plasma (Harlan) or PBS (control) to a final concentration of 250 μM (2 samples). The samples were incubated at 37° C. 40 μl aliquots were removed from sample A at 0, 12, 14, 16, 18, 20 and 22 hr and from sample B at 0, 2, 4, 6, 8 and 10 hr. To purify each aliquot, double the volume of 100% ethanol (80 μl) was added and incubated at −20° C. for a few hours or overnight. The samples were centrifuged and 80 μl supernatant recovered. 40 μl water with 0.1% TFA was added to each sample and 100 μl was injected onto a SunFire C18 HPLC column. Buffer A (0.1% TFA in Water) was run through the column followed by 10-50% Buffer B (0.1% TFA, 5% water in 95% acetonitrile) over 20 min. The fractions from the column were collected and analysed using an AXIMA mass spectrometer.

[1] = Far-UV CD analysis at different temperatures; type: physicochemical; conditions: 0.2 mg/ml peptide
Method: Peptides were resuspended in Molecular Biology Grade water or 10 mM sodium phosphate, pH 7, at a concentration of 200 μM to 1.4 mM. Far-UV scans were measured on an Aviv Model 410 spectrometer measuring at 0.5 nm intervals with a 1 sec averaging time, between 190 and 260 nm using 0.2 mg/ml peptide and a 1 nm bandwidth. Three scans were taken in total at each temperature and the results averaged. The CD scans were plotted using Aviv model 4.10 software, and the data were converted to molar ellipticity (M^−1 cm^−1). […] This far-UV spectrum is characteristic of other small structurally characterised β-sheet structures (Koepf et al. 1999, Protein Science, 8, 841-853; see FIG. 15).

VEGFR2-Fc fusion = target: T1, VEGFR2-Fc fusion (Homo sapiens, UniProt P35968); experiment: Real time binding assay by biolayer interferometry (Octet Red), steady state analysis
T1 construct: His tag (only implied: capture on TALON beads, detection with penta His-HRP); purchased R&D Systems
T1 sequence (P35968 with tags, fused parts or gaps): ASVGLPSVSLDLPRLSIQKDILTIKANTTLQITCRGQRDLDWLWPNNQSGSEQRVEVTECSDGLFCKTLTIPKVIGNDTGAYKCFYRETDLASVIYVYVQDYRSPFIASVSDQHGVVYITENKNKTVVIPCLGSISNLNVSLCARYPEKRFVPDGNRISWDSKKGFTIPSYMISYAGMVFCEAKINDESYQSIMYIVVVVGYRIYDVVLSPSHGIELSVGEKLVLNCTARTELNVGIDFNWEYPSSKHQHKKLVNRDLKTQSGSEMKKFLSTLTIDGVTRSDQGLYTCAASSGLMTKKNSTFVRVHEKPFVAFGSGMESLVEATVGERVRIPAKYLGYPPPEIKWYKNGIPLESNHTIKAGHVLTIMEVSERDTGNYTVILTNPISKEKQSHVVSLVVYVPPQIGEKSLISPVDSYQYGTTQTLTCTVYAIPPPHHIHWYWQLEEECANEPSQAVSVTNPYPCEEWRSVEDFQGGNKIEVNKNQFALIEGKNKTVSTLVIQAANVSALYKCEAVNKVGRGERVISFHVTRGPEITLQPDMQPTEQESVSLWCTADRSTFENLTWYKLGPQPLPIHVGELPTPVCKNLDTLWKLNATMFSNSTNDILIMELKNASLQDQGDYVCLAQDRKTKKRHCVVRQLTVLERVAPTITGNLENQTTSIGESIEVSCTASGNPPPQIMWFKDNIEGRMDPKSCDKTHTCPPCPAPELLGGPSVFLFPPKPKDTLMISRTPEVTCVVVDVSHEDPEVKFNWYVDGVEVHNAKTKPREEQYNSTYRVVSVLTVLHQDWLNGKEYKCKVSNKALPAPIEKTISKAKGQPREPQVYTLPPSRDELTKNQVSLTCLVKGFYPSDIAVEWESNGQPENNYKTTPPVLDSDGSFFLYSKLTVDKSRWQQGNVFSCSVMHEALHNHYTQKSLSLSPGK
Method: Alternatively, real-time binding assays between a chemically synthesised WW domain and ligand may be performed using biolayer interferometry with an Octet Red system (Fortebio, Menlo Park, Calif.). Biotinylated WW domain is immobilised to streptavidin biosensors (Fortebio) at a concentration of 50 ng/μl in PBS. Association curves are then detected by incubating WW domain-coated sensors with different concentrations of ligand (e.g. 1 to 100 nM in PBS), and dissociations detected by incubating the sensors in PBS. The dissociation constant for WW domain binding can be determined by steady state analysis.
Real-time binding assays between the peptides and VEGFR2-Fc fusion were performed using biolayer interferometry with an Octet Red system (Fortebio, Menlo Park, Calif.). WW peptides were immobilised on streptavidin biosensors (Fortebio) at a concentration of 2 μg/ml in kinetic buffer. Association curves were then detected by incubating the immobilised peptide with streptavidin-HRP (1 to 100 nM in kinetic buffer), and dissociations were detected by incubating the sensors in kinetic buffer.

[2] = target: T2, binding of VEGFR2 to VEGF (Homo sapiens, UniProt P35968); experiment: Competition ELISA: binding of VEGFR2 to VEGF-A coated wells in presence of WW domain peptide
T2 construct: His tag (only implied by detection with penta His-HRP); purchased R&D Systems
T2 sequence (P35968 with tags, fused parts or gaps): as above
Method: A competition assay was carried out in which binding of VEGFR2 to VEGF-A (VEGF) was competed by the presence of varying amounts of the selected modified WW domain peptide.
50 ng human VEGF (R&D Systems, Abingdon, UK) 1 μg/ml in PBS was coated per well onto a Maxisorp plate at 37° C. for 140 minutes. The wells were then blocked with 100 μl PBS containing 2% BSA for 55 minutes at room temperature. 1.25 ng VEGFR2 was preincubated with WW-B1 fused to maltose binding protein (MBP) in 50 μl PBS for 45 minutes at room temperature. The activity of the WW-B1 peptide was tested at serial dilutions from 10 μM to 156.25 nM. 50 μl 4% BSA in PBS was added to the preincubated VEGFR2 with WW-B1-MBP and the whole mixture was then added to the VEGF coated ELISA plate and incubated at room temperature for 55 minutes. The plate was then washed with 3 washes in PBS-Tween and 2 washes in PBS. Next 50 μl/well penta His-HRP (QIAgen, diluted 1:500 in 2% BSA in PBS) was added and the mixture incubated at room temperature for 55 minutes, before washing as before. ELISA signals were detected using SureBlue TMB peroxidase substrate (Insight biotechnology, Middlesex, UK) at 450 nm.
As a control, the above process was repeated with wild-type Pin1 WW domain peptide replacing WW-B1. The results are illustrated in FIG. 6.

Row | Compound | half-life at 250 μM (Plasma stability assay) | structure after heating to 95° C. and cooling to 25° C. [1] | CD peak at 227-231 nm at 95° C. (folding state) [1] | Kd (VEGFR2-Fc fusion; peptide on streptavidin biosensors, 2 μg/ml in kinetic buffer, steady state analysis (Example 4), read-out: dissociation constant / affinity for VEGFR2) | binding affinity to VEGFR2 compared with non-cyclised WW-B1 (VEGFR2-Fc fusion; tested as set out in Example 2) | binding affinity for VEGFR2 (concluded from competition assay) ([2]; control replacing WW-B1) | effect on the binding of VEGFR2 to VEGF ([2]; control replacing WW-B1 in the competition ELISA)
1 | CC[C@H](C)[C@H](NC(=O)[C@H](CC(=O)O)NC(=O)[C@H](CC(N)=O)NC(=O)[C@@H](NC(=O)[C@H](Cc1ccc(O)cc1)NC(=O)[C@H](CC(C)C)NC(=O)[C@@H](NC(=O)[C@H](CCCNC(=N)N)NC(=O)CNC(=O)[C@@H]1CCCN1C(=O)[C@H](CO)NC(=O)[C@H](CO)NC(=O)[C@H](Cc1c[nH]c2ccccc12)NC(=O)[C@H](CCSC)NC(=O)[C@H](CCCCN)NC(=O)[C@H](Cc1ccc(O)cc1)NC(=O)[C@H](Cc1c[nH]c2ccccc12)NC(=O)CNC(=O)[C@@H]1CCCN1C(=O)[C@@H]1CCCN1C(=O)[C@H](CC(C)C)NC(=O)[C@H](CCCCN)NC(=O)[C@H](CCC(=O)O)NC(=O)[C@H](CCC(=O)O)NC(=O)[C@H](CC(=O)O)NC(=O)[C@H](C)NC(=O)[C@H](CCSC)NC(=O)CCCC[C@@H]1SC[C@@H]2NC(=O)N[C@@H]21)C(C)C)C(C)C)C(=O)N[C@H](C(=O)N[C@@H](Cc1c[nH]cn1)C(=O)N[C@@H](C)C(=O)N[C@@H](Cc1c[nH]cn1)C(=O)N[C@@H](CCCNC(=N)N)C(=O)N[C@@H](Cc1c[nH]c2ccccc12)C(=O)N[C@@H](CCC(=O)O)C(=O)N[C@@H](CCCNC(=N)N)C(=O)N1CCC[C@H]1C(=O)N[C@@H](CO)C(=O)NCC(N)=O)[C@@H](C)O [WW-B1] (Biotin-MADEEKLPPGWYKMWSSPGRVLYVNDITHAHRWERPSG-NH2; N-terminus and C-terminus assumed) | 6.2 h | able to reform its structure | unfolding | – | – | – | –
2 | CC[C@H](C)[C@@H]1NC(=O)[C@H](CC(=O)O)NC(=O)[C@H](CC(N)=O)NC(=O)[C@H](C(C)C)NC(=O)[C@H](Cc2ccc(O)cc2)NC(=O)[C@H](CC(C)C)NC(=O)[C@H](C(C)C)NC(=O)[C@H](CCCNC(=N)N)NC(=O)CNC(=O)[C@@H]2CCCN2C(=O)[C@H](CO)NC(=O)[C@H](CO)NC(=O)[C@H](Cc2c[nH]c3ccccc23)NC(=O)[C@H](CCSC)NC(=O)[C@H](CCCCN)NC(=O)[C@H](Cc2ccc(O)cc2)NC(=O)[C@H](Cc2c[nH]c3ccccc23)NC(=O)CNC(=O)[C@@H]2CCCN2C(=O)[C@@H]2CCCN2C(=O)[C@H](CC(C)C)NC(=O)[C@@H](NC(=O)[C@H](CCC(=O)O)NC(=O)[C@H](CCC(=O)O)NC(=O)[C@H](CC(=O)O)NC(=O)CCCC[C@@H]2SC[C@@H]3NC(=O)N[C@@H]32)CCCCNC(=O)CC[C@@H](C(=O)NCC(N)=O)NC(=O)[C@@H]2CCCN2C(=O)[C@H](CCCNC(=N)N)NC(=O)[C@H](CCC(=O)O)NC(=O)[C@H](Cc2c[nH]c3ccccc23)NC(=O)[C@H](CCCNC(=N)N)NC(=O)[C@H](Cc2c[nH]cn2)NC(=O)[C@H](C)NC(=O)[C@H](Cc2c[nH]cn2)NC(=O)[C@H]([C@@H](C)O)NC1=O [cyclised WW-B1] (Biotin-DEEKLPPGWYKMWSSPGRVLYVNDITHAHRWERPEG-NH2; lactam 4-35) | – | able to reform its structure | unfolding | 31 nM | comparable activity | – | –
3 | MADEEKLPPGWEKRMSRSSGRVYYFNHITNASQWERPSG [wild-type Pin1 WW domain, peptide fragment of the human Pin1 protein, used as control] | – | – | – | – | – | negligible | essentially no effect
